Experimental data as given in ChEMBL document CHEMBL3885881, “DrugMatrix”.

Species: Rattus norvegicus
Experiment: DrugMatrix - Regimen: Daily Repeat
Format: toxicity, organism-based, Sprague-Dawley
Set-up: regimen Daily Repeat, gender Male, age 6-8 weeks
Conditions: in vivo, po, route oral GAVAGE; for ABSOLUTE BASOPHIL / ABSOLUTE EOSINOPHIL / ABSOLUTE LYMPHOCYTE / ABSOLUTE MONOCYTE / ABSOLUTE SEGMENTED NEUTROPHIL / BASOPHIL / EOSINOPHIL / ERYTHROCYTE COUNT / HEMATOCRIT / HEMOGLOBIN / LEUKOCYTE COUNT / LYMPHOCYTE / MEAN CORPUSCULAR HEMOGLOBIN / MEAN CORPUSCULAR HEMOGLOBIN CONCENTRATION / MEAN CORPUSCULAR VOLUME / MONOCYTE / NEUTROPHIL / NUCLEATED RED BLOOD CELLS / PLATELET COUNT: tissue Blood; for ALANINE AMINOTRANSFERASE / ALBUMIN / ALKALINE PHOSPHATASE / ASPARTATE AMINOTRANSFERASE / BLOOD UREA NITROGEN / CARBON DIOXIDE / CHLORIDE / CHOLESTEROL / CREATINE PHOSPHOKINASE / CREATININE / GLUCOSE / LACTATE DEHYDROGENASE / LIPASE / PHOSPHORUS / POTASSIUM / SODIUM / TOTAL BILIRUBIN / TOTAL PROTEIN / URIC ACID: tissue Plasma
[1] = 25 mg/kg, 72 h, dose level Low, time 3 day, […]
[2] = 25 mg/kg, 120 h, dose level Low, time 5 day, […]
[3] = 2500 mg/kg, 72 h, dose level High, time 3 day, vehicle 100 % WATER
[4] = 2500 mg/kg, 120 h, dose level High, time 5 day, vehicle 100 % WATER

O=c1ccc2ccccc2o1 [COUMARIN]
ABSOLUTE BASOPHIL [1]: 0 CELLS/uL
ABSOLUTE EOSINOPHIL [1]: 0 CELLS/uL
ABSOLUTE LYMPHOCYTE [1]: 13415.67 CELLS/uL
ABSOLUTE MONOCYTE [1]: 244.67 CELLS/uL
ABSOLUTE SEGMENTED NEUTROPHIL [1]: 973 CELLS/uL
BASOPHIL [1]: 0%
EOSINOPHIL [1]: 0%
ERYTHROCYTE COUNT [1]: 5.76 x10E6/uL
HEMATOCRIT [1]: 36.97%
HEMOGLOBIN [1]: 14.6 G/DL
LEUKOCYTE COUNT [1]: 14.63 x10E3/uL
LYMPHOCYTE [1]: 92%
MEAN CORPUSCULAR HEMOGLOBIN [1]: 25.4 pg
MEAN CORPUSCULAR HEMOGLOBIN CONCENTRATION [1]: 39.5 G/DL
MEAN CORPUSCULAR VOLUME [1]: 64.27 fL
MONOCYTE [1]: 1.67%
NEUTROPHIL [1]: 6.33%
NUCLEATED RED BLOOD CELLS [1]: 0 /100WBC
PLATELET COUNT [1]: 1015 x10E3/uL
ALANINE AMINOTRANSFERASE [1]: 75 u/L
ALBUMIN [1]: 4.13 G/DL
ALKALINE PHOSPHATASE [1]: 469.67 u/L
ASPARTATE AMINOTRANSFERASE [1]: 106.33 u/L
BLOOD UREA NITROGEN [1]: 10.67 mg/dL
CARBON DIOXIDE [1]: 33.67 mmol/L
CHLORIDE [1]: 101.67 MEQ/L
CHOLESTEROL [1]: 71.67 mg/dL
CREATINE PHOSPHOKINASE [1]: 272.67 u/L
CREATININE [1]: 0.12 mg/dL
GLUCOSE [1]: 148 mg/dL
LACTATE DEHYDROGENASE [1]: 117 u/L
LIPASE [1]: 13.67 u/L
PHOSPHORUS [1]: 11.83 mg/dL
POTASSIUM [1]: 6.75 MEQ/L
SODIUM [1]: 146.1 MEQ/L
TOTAL BILIRUBIN [1]: 0.13 mg/dL
TOTAL PROTEIN [1]: 5.1 G/DL
URIC ACID [1]: 1.27 mg/dL
ABSOLUTE BASOPHIL [2]: 0 CELLS/uL
ABSOLUTE EOSINOPHIL [2]: 0 CELLS/uL
ABSOLUTE LYMPHOCYTE [2]: 11975.33 CELLS/uL
ABSOLUTE MONOCYTE [2]: 0 CELLS/uL
ABSOLUTE SEGMENTED NEUTROPHIL [2]: 1091.33 CELLS/uL
BASOPHIL [2]: 0%
EOSINOPHIL [2]: 0%
ERYTHROCYTE COUNT [2]: 5.78 x10E6/uL
HEMATOCRIT [2]: 36.27%
HEMOGLOBIN [2]: 14.1 G/DL
LEUKOCYTE COUNT [2]: 13.07 x10E3/uL
LYMPHOCYTE [2]: 91.33%
MEAN CORPUSCULAR HEMOGLOBIN [2]: 24.4 pg
MEAN CORPUSCULAR HEMOGLOBIN CONCENTRATION [2]: 38.9 G/DL
MEAN CORPUSCULAR VOLUME [2]: 62.7 fL
MONOCYTE [2]: 0%
NEUTROPHIL [2]: 8.67%
NUCLEATED RED BLOOD CELLS [2]: 0 /100WBC
PLATELET COUNT [2]: 1251 x10E3/uL
ALANINE AMINOTRANSFERASE [2]: 69 u/L
ALBUMIN [2]: 4.17 G/DL
ALKALINE PHOSPHATASE [2]: 466 u/L
ASPARTATE AMINOTRANSFERASE [2]: 95.67 u/L
BLOOD UREA NITROGEN [2]: 13.33 mg/dL
CARBON DIOXIDE [2]: 27 mmol/L
CHLORIDE [2]: 102.67 MEQ/L
CHOLESTEROL [2]: 64.33 mg/dL
CREATINE PHOSPHOKINASE [2]: 297 u/L
CREATININE [2]: 0.17 mg/dL
GLUCOSE [2]: 157.33 mg/dL
LACTATE DEHYDROGENASE [2]: 402.33 u/L
LIPASE [2]: 12.33 u/L
PHOSPHORUS [2]: 12 mg/dL
POTASSIUM [2]: 6.55 MEQ/L
SODIUM [2]: 143.47 MEQ/L
TOTAL BILIRUBIN [2]: 0.23 mg/dL
TOTAL PROTEIN [2]: 5.73 G/DL
URIC ACID [2]: 1.8 mg/dL

CCN(CC)CCOC(=O)c1ccc(N)cc1 [PROCAINE]
ABSOLUTE BASOPHIL [3]: 0 CELLS/uL
ABSOLUTE EOSINOPHIL [3]: 0 CELLS/uL
ABSOLUTE LYMPHOCYTE [3]: 12849.67 CELLS/uL
ABSOLUTE MONOCYTE [3]: 127.33 CELLS/uL
ABSOLUTE SEGMENTED NEUTROPHIL [3]: 789.67 CELLS/uL
BASOPHIL [3]: 0%
EOSINOPHIL [3]: 0%
ERYTHROCYTE COUNT [3]: 5.53 x10E6/uL
HEMATOCRIT [3]: 34.97%
HEMOGLOBIN [3]: 13.83 G/DL
LEUKOCYTE COUNT [3]: 13.77 x10E3/uL
LYMPHOCYTE [3]: 93.33%
MEAN CORPUSCULAR HEMOGLOBIN [3]: 24.97 pg
MEAN CORPUSCULAR HEMOGLOBIN CONCENTRATION [3]: 39.63 G/DL
MEAN CORPUSCULAR VOLUME [3]: 63.1 fL
MONOCYTE [3]: 1%
NEUTROPHIL [3]: 5.67%
NUCLEATED RED BLOOD CELLS [3]: 0 /100WBC
PLATELET COUNT [3]: 1276.67 x10E3/uL
ALANINE AMINOTRANSFERASE [3]: 52.33 u/L
ALBUMIN [3]: 4.3 G/DL
ALKALINE PHOSPHATASE [3]: 353.67 u/L
ASPARTATE AMINOTRANSFERASE [3]: 121.67 u/L
BLOOD UREA NITROGEN [3]: 13.67 mg/dL
CARBON DIOXIDE [3]: 25.33 mmol/L
CHLORIDE [3]: 103.33 MEQ/L
CHOLESTEROL [3]: 42.33 mg/dL
CREATINE PHOSPHOKINASE [3]: 550.67 u/L
CREATININE [3]: 0.21 mg/dL
GLUCOSE [3]: 173 mg/dL
LACTATE DEHYDROGENASE [3]: 675.33 u/L
LIPASE [3]: 9 u/L
PHOSPHORUS [3]: 14.53 mg/dL
POTASSIUM [3]: 7.06 MEQ/L
SODIUM [3]: 146.03 MEQ/L
TOTAL BILIRUBIN [3]: 0.17 mg/dL
TOTAL PROTEIN [3]: 5.9 G/DL
URIC ACID [3]: 2.57 mg/dL
ABSOLUTE BASOPHIL [4]: 0 CELLS/uL
ABSOLUTE EOSINOPHIL [4]: 0 CELLS/uL
ABSOLUTE LYMPHOCYTE [4]: 14457.33 CELLS/uL
ABSOLUTE MONOCYTE [4]: 61 CELLS/uL
ABSOLUTE SEGMENTED NEUTROPHIL [4]: 915 CELLS/uL
BASOPHIL [4]: 0%
EOSINOPHIL [4]: 0%
ERYTHROCYTE COUNT [4]: 6.15 x10E6/uL
HEMATOCRIT [4]: 37.43%
HEMOGLOBIN [4]: 14.7 G/DL
LEUKOCYTE COUNT [4]: 15.43 x10E3/uL
LYMPHOCYTE [4]: 93.33%
MEAN CORPUSCULAR HEMOGLOBIN [4]: 23.93 pg
MEAN CORPUSCULAR HEMOGLOBIN CONCENTRATION [4]: 39.3 G/DL
MEAN CORPUSCULAR VOLUME [4]: 60.87 fL
MONOCYTE [4]: 0.33%
NEUTROPHIL [4]: 6.33%
NUCLEATED RED BLOOD CELLS [4]: 0 /100WBC
PLATELET COUNT [4]: 1379 x10E3/uL
ALANINE AMINOTRANSFERASE [4]: 40 u/L
ALBUMIN [4]: 4.73 G/DL
ALKALINE PHOSPHATASE [4]: 323.33 u/L
ASPARTATE AMINOTRANSFERASE [4]: 94 u/L
BLOOD UREA NITROGEN [4]: 17 mg/dL
CARBON DIOXIDE [4]: 26 mmol/L
CHLORIDE [4]: 101.67 MEQ/L
CHOLESTEROL [4]: 33.67 mg/dL
CREATINE PHOSPHOKINASE [4]: 281 u/L
CREATININE [4]: 0.24 mg/dL
GLUCOSE [4]: 166.67 mg/dL
LACTATE DEHYDROGENASE [4]: 198.33 u/L
LIPASE [4]: 9.67 u/L
PHOSPHORUS [4]: 12.67 mg/dL
POTASSIUM [4]: 7.55 MEQ/L
SODIUM [4]: 143.33 MEQ/L
TOTAL BILIRUBIN [4]: 0.2 mg/dL
TOTAL PROTEIN [4]: 6.67 G/DL
URIC ACID [4]: 2 mg/dL
